# According to paper PMC7483475, “The Sporomusa type Nfn is a novel type of electron-bifurcating transhydrogenase that links the redox pools in acetogenic bacteria” (Scientific Reports, 2020):
# Assays:
# [1] = target: T1, Stn complex (Sporomusa type Nfn; StnABC) (Sporomusa ovata, UniProt A0A0U1KYI6+A0A0U1KYM9); assay: protein precipitation and thin layer chromatography of released flavin; assay type: binding; conditions: bound flavin, loosely bound; FAD and FMN present in purification buffers
# T1 construct: gene SpAn4DRAFT_2936; native purification from S. ovata cytoplasm, untagged; ~840 kDa tetrameric heterotrimer; identified by MALDI-TOF-MS; with Sporomusa type Nfn subunit A (NuoE-like, HydC/HndA-like [2Fe-2S] subunit)
# T1 sequence (A0A0U1KYM9 1-584): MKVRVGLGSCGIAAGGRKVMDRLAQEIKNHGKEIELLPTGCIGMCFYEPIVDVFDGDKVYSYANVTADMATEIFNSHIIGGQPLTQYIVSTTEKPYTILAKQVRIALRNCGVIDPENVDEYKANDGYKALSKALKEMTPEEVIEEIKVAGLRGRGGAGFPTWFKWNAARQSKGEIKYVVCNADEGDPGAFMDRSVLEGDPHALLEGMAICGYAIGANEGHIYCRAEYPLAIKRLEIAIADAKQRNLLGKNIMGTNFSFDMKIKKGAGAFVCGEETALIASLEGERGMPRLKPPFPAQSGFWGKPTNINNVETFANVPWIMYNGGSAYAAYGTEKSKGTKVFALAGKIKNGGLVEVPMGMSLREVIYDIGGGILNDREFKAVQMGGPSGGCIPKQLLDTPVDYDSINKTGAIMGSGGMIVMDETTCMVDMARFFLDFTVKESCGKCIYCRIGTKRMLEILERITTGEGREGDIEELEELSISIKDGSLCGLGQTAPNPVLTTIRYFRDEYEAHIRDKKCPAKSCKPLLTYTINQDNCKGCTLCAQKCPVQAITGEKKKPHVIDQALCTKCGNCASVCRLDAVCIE
# T1 sequence (A0A0U1KYI6 1-1172): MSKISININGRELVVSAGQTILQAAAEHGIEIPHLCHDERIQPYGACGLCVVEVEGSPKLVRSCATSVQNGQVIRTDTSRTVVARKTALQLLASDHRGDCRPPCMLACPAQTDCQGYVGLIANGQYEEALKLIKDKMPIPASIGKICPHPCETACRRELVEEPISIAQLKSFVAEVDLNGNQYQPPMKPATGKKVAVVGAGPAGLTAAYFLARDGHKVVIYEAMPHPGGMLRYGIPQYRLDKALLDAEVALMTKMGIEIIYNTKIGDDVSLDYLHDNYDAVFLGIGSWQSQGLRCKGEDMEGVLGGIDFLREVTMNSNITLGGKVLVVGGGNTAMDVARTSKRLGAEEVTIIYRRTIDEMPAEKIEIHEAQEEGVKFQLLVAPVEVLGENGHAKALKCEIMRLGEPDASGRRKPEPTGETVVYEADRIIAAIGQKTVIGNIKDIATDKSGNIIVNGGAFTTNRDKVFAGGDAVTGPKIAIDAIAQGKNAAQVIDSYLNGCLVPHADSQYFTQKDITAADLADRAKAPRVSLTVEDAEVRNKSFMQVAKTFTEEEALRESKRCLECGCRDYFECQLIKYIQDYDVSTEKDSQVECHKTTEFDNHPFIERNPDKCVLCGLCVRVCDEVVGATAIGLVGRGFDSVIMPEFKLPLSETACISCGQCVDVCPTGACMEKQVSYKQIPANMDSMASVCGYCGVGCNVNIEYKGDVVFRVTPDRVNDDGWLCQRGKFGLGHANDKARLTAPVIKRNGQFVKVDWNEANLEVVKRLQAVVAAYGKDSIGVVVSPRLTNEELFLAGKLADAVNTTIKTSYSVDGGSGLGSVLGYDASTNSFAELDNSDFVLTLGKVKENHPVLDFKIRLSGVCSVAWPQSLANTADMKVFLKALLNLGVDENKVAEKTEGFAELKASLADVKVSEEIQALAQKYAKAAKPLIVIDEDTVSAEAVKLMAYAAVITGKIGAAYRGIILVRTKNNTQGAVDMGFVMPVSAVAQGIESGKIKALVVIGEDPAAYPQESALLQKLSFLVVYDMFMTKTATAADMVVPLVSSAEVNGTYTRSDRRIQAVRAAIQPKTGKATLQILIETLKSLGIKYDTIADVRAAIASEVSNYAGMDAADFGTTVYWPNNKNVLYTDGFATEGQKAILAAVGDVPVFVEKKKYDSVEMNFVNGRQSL
# T1 sequence (A0A0U1KYW8 1-178 partner): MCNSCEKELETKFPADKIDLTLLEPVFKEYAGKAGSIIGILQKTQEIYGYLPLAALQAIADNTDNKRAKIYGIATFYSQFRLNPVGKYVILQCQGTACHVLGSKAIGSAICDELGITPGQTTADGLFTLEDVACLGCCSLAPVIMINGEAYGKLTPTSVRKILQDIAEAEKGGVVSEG
# StnC (strep-tagged) [2] = target: T2, StnC (strep-tagged) (Sporomusa ovata, UniProt A0A0U1KYI6); assay: thin layer chromatography of bound flavin; assay type: binding; conditions: bound flavin of recombinant StnC
# T2 construct: gene SpAn4DRAFT_2937; isolated subunit, N-terminal Strep-tag kept, E. coli BL21 (DE3) delta-iscR; translated from primers: N-term MWSHPQFEKSA-SKISININGR, C-term NFVNGRQSL
# T2 sequence (A0A0U1KYI6 2-1172): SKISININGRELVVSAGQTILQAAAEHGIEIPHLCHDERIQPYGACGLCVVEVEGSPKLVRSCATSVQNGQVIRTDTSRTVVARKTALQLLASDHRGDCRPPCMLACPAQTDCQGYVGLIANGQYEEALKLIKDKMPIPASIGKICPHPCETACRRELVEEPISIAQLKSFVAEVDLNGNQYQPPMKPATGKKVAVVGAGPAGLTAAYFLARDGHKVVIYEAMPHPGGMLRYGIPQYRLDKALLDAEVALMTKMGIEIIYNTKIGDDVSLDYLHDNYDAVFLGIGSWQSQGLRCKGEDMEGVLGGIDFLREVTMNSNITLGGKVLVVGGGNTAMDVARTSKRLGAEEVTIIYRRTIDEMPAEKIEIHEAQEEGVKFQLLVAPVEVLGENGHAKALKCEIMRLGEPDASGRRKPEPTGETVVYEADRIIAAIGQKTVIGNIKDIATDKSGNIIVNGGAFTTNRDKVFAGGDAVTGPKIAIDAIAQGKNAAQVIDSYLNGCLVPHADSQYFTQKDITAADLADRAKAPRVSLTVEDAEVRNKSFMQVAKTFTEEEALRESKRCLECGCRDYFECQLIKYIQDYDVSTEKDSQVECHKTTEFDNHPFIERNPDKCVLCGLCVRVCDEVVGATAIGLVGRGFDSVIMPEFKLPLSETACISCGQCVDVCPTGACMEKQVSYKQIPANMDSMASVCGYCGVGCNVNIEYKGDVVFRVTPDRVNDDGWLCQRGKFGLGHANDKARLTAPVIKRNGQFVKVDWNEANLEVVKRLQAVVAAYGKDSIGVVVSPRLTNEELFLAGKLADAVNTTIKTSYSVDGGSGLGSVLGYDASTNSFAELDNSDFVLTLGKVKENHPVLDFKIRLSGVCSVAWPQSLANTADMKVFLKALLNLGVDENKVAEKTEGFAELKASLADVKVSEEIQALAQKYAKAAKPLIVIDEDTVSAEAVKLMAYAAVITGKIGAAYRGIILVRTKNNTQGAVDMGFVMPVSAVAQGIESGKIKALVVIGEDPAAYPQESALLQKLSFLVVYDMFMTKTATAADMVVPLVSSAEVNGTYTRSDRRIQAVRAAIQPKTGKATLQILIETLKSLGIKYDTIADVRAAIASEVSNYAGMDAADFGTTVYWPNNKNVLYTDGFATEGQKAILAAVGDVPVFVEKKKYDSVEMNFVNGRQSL
# StnC (strep-tagged) [3] = target: T2, StnC (strep-tagged); assay: spectrophotometric FMN reduction, […] nm; assay type: biochemical; conditions: electron acceptor, 0.2 mM FMN, 0.25 mM NADPH; 100 mM Tris/HCl pH 7.5, 20 °C
# StnC (strep-tagged) [4] = target: T2, StnC (strep-tagged); assay: spectrophotometric NADPH-dependent acceptor reduction; assay type: biochemical; conditions: acceptors methyl viologen, FAD, FMN or ferricyanide; 100 mM Tris/HCl pH 7.5, 20 °C
# [5] = target: Sporomusa type Nfn (Stn) complex, heterotrimer of StnA, StnB and StnC (Sporomusa ovata); assay: SEC; analytical gel filtration of the purified Stn complex on Superdex 200; heterotrimer to tetramer of heterotrimers
molecule,measurement,setting,value
Cc1cc2nc3c(=O)[nH]c(=O)nc-3n(C[C@H](O)[C@H](O)[C@H](O)COP(=O)(O)OP(=O)(O)OC[C@H]3O[C@@H](n4cnc5c(N)ncnc54)[C@H](O)[C@@H]3O)c2cc1C [FAD],protein precipitation and thin layer chromatography of released flavin,[1],FAD was identified to be the only flavin bound
same,thin layer chromatography of bound flavin,StnC (strep-tagged) [2],The identity of bound Flavin was elucidated by TLC to be FAD.
Cc1cc2nc3c(=O)[nH]c(=O)nc-3n(C[C@H](O)[C@H](O)[C@H](O)COP(=O)(O)O)c2cc1C [FMN],"spectrophotometric FMN reduction, 450 nm",StnC (strep-tagged) [3],"The purified protein exhibited NADPH oxidation with methyl viologen, FAD, FMN and ferricyanide"
NC(=O)C1=CN([C@@H]2O[C@H](COP(=O)(O)OP(=O)(O)OC[C@H]3O[C@@H](n4cnc5c(N)ncnc54)[C@H](OP(=O)(O)O)[C@@H]3O)[C@@H](O)[C@H]2O)C=CC1 [NADPH],spectrophotometric NADPH-dependent acceptor reduction,StnC (strep-tagged) [4],"The purified protein exhibited NADPH oxidation with methyl viologen, FAD, FMN and ferricyanide"
"Sporomusa type Nfn (Stn) complex, heterotrimer of StnA, StnB and StnC",stoichiometry N,[5],4
